Reference: ChEMBL document CHEMBL3885861, “Open TG-GATES”

Species: Rattus norvegicus
Assay: Open TG-GATES - Regimen: Single
Assay type: toxicity, organism-based, Sprague-Dawley
Parameters: regimen Single, gender Male, age 6 weeks
Details: in vivo, po, 0 mg/kg, route gavage, dose level Control; for APTT / Bas / Eos / Fbg / Hb / Ht / Lym / MCH / MCHC / MCV / Mono / Neu / PT / Plat / RBC / Ret / WBC: tissue Blood; for KIDNEY_L / KIDNEY_R / KIDNEY_TOTAL: tissue Kidney; for LIVER: tissue Liver; for A/G / ALP / ALT / AST / BUN / CRE / Ca / Cl / DBIL / GLC / IP / K / LDH / Na / PL / RALB / TBIL / TC / TG / TP / gamma-GTP: tissue Plasma

Which results are given for `CCSCC[C@H](N)C(=O)O` [ETHIONINE]?
TERMINAL_BW (3 h): 218.5 g; APTT (3 h): 19 s; Bas (3 h): 0%; Eos (3 h): 1%; Fbg (3 h): 216.6 mg/dL; Hb (3 h): 13.4 g/dL; Ht (3 h): 39.8%; Lym (3 h): 79.6%; MCH (3 h): 21.1 pg; MCHC (3 h): 33.5%; MCV (3 h): 62.9 fL; Mono (3 h): 3%; Neu (3 h): 16.4%; PT (3 h): 12.5 s; Plat (3 h): 122 x10_4/uL; RBC (3 h): 632.8 x10_4/ul; Ret (3 h): 7.4%; WBC (3 h): 83.3 x10_2/uL; KIDNEY_L (3 h): 1 g; KIDNEY_R (3 h): 1 g; KIDNEY_TOTAL (3 h): 1.9 g; LIVER (3 h): 10.3 g; A/G (3 h): 1.6; ALP (3 h): 974.2 IU/L; ALT (3 h): 35.6 IU/L; AST (3 h): 64.4 IU/L; BUN (3 h): 11.6 mg/dL; CRE (3 h): 0.4 mg/dL; Ca (3 h): 10.6 mg/dL; Cl (3 h): 100.6 meq/L; DBIL (3 h): 0.066 mg/dL; GLC (3 h): 196.6 mg/dL; IP (3 h): 9.3 mg/dL; K (3 h): 3.9 meq/L; LDH (3 h): 172.8 IU/L; Na (3 h): 140.2 meq/L; PL (3 h): 136.8 mg/dL; RALB (3 h): 3.3 g/dL; TBIL (3 h): 0.1 mg/dL; TC (3 h): 70.6 mg/dL; TG (3 h): 80.8 mg/dL; TP (3 h): 5.4 g/dL; gamma-GTP (3 h): 1 IU/L; TERMINAL_BW (6 h): 211.6 g; APTT (6 h): 18.9 s; Bas (6 h): 0%; Eos (6 h): 1%; Fbg (6 h): 229 mg/dL; Hb (6 h): 13.6 g/dL; Ht (6 h): 40%; Lym (6 h): 81.8%; MCH (6 h): 21.3 pg; MCHC (6 h): 34.1%; MCV (6 h): 62.5 fL; Mono (6 h): 2.8%; Neu (6 h): 13.2%; PT (6 h): 12.8 s; Plat (6 h): 111.7 x10_4/uL; RBC (6 h): 640.6 x10_4/ul; Ret (6 h): 6.9%; WBC (6 h): 79.1 x10_2/uL; KIDNEY_L (6 h): 1 g; KIDNEY_R (6 h): 0.9 g; KIDNEY_TOTAL (6 h): 1.9 g; LIVER (6 h): 9 g; A/G (6 h): 1.5; ALP (6 h): 1036.8 IU/L; ALT (6 h): 38.6 IU/L; AST (6 h): 70.6 IU/L; BUN (6 h): 10.6 mg/dL; CRE (6 h): 0.4 mg/dL; Ca (6 h): 10.4 mg/dL; Cl (6 h): 102.4 meq/L; DBIL (6 h): 0.076 mg/dL; GLC (6 h): 196 mg/dL; IP (6 h): 9.5 mg/dL; K (6 h): 3.7 meq/L; LDH (6 h): 189 IU/L; Na (6 h): 140.6 meq/L; PL (6 h): 145 mg/dL; RALB (6 h): 3.3 g/dL; TBIL (6 h): 0.1 mg/dL; TC (6 h): 78 mg/dL; TG (6 h): 88.6 mg/dL; TP (6 h): 5.5 g/dL; gamma-GTP (6 h): 1 IU/L; TERMINAL_BW (9 h): 213.3 g; APTT (9 h): 19 s; Bas (9 h): 0%; Eos (9 h): 1%; Fbg (9 h): 224.8 mg/dL; Hb (9 h): 13 g/dL; Ht (9 h): 38.3%; Lym (9 h): 76.8%; MCH (9 h): 21.2 pg; MCHC (9 h): 34%; MCV (9 h): 62.4 fL; Mono (9 h): 2.4%; Neu (9 h): 19.2%; PT (9 h): 13 s; Plat (9 h): 123.8 x10_4/uL; RBC (9 h): 615 x10_4/ul; Ret (9 h): 6.9%; WBC (9 h): 90.6 x10_2/uL; KIDNEY_L (9 h): 1 g; KIDNEY_R (9 h): 1 g; KIDNEY_TOTAL (9 h): 1.9 g; LIVER (9 h): 9.1 g; A/G (9 h): 1.5; ALP (9 h): 936 IU/L; ALT (9 h): 31.2 IU/L; AST (9 h): 63 IU/L; BUN (9 h): 10 mg/dL; CRE (9 h): 0.4 mg/dL; Ca (9 h): 10.4 mg/dL; Cl (9 h): 102.6 meq/L; DBIL (9 h): 0.062 mg/dL; GLC (9 h): 203.4 mg/dL; IP (9 h): 9.4 mg/dL; K (9 h): 3.6 meq/L; LDH (9 h): 187.2 IU/L; Na (9 h): 141.2 meq/L; PL (9 h): 140 mg/dL; RALB (9 h): 3.3 g/dL; TBIL (9 h): 0.1 mg/dL; TC (9 h): 79.6 mg/dL; TG (9 h): 53.6 mg/dL; TP (9 h): 5.5 g/dL; gamma-GTP (9 h): 1 IU/L; TERMINAL_BW (24 h): 228.7 g; APTT (24 h): 20.7 s; Bas (24 h): 0%; Eos (24 h): 1%; Fbg (24 h): 226 mg/dL; Hb (24 h): 14 g/dL; Ht (24 h): 41.5%; Lym (24 h): 80.6%; MCH (24 h): 21.8 pg; MCHC (24 h): 33.8%; MCV (24 h): 64.4 fL; Mono (24 h): 2.6%; Neu (24 h): 14.8%; PT (24 h): 12.1 s; Plat (24 h): 126 x10_4/uL; RBC (24 h): 644.2 x10_4/ul; Ret (24 h): 6.6%; WBC (24 h): 105.3 x10_2/uL; KIDNEY_L (24 h): 1 g; KIDNEY_R (24 h): 1 g; KIDNEY_TOTAL (24 h): 2 g; LIVER (24 h): 11.1 g; A/G (24 h): 1.5; ALP (24 h): 936 IU/L; ALT (24 h): 41 IU/L; AST (24 h): 66.8 IU/L; BUN (24 h): 14.4 mg/dL; CRE (24 h): 0.4 mg/dL; Ca (24 h): 10.7 mg/dL; Cl (24 h): 102 meq/L; DBIL (24 h): 0.096 mg/dL; GLC (24 h): 211.6 mg/dL; IP (24 h): 8.1 mg/dL; K (24 h): 3.8 meq/L; LDH (24 h): 183.8 IU/L; Na (24 h): 140.2 meq/L; PL (24 h): 156.6 mg/dL; RALB (24 h): 3.4 g/dL; TBIL (24 h): 0.1 mg/dL; TC (24 h): 81 mg/dL; TG (24 h): 99.2 mg/dL; TP (24 h): 5.7 g/dL; gamma-GTP (24 h): 1.2 IU/L
